Patent US20050043315A1, “Aminopyrimidine compounds, processes for their preparation and pharmaceutical compositions containing them” (priority 2002, published 2005)

melting point [°C] | SMILES
203 | Cc1ccccc1-c1nc(N)ncc1-c1ccc(=O)n(C(C)C)n1 [Example 56, 6-[2-Amino-4-(2-methylphenyl)-5-pyrimidinyl]-2-isopropyl-3(2H)-pyridazinone]
198 | Cc1cccc(-c2nc(N)ncc2-c2ccc(=O)n(C(C)C)n2)c1 [Example 57, 6-[2-Amino-4-(3-methylphenyl)-5-pyrimidinyl]-2-isopropyl-3(2H)-pyridazinone]
264 | Cn1nc(-c2cnc(N)nc2-c2ccc(Cl)cc2)ccc1=O [Example 61, 6-[2-Amino-4-(4-chlorophenyl)-5-pyrimidinyl]-2-methyl-3(2H)-pyridazinone]
234 | Cn1nc(-c2cnc(N)nc2-c2ccco2)ccc1=O [Example 64, 6-[2-Amino-4-(2-furyl)-5-pyrimidinyl]-2-methyl-3(2H)-pyridazinone]
232 | COc1ccc(-c2nc(N)ncc2-c2ccc(=O)n(C)n2)cc1OC [Example 67, 6-[2-Amino-4-(3,4-dimethoxyphenyl)-5-pyrimidinyl]-2-methyl-3(2H)-pyridazinone]
238 | Cn1nc(-c2cnc(N)nc2-c2ccc(Cl)c(Cl)c2)ccc1=O [Example 68, 6-[2-Amino-4-(3,4-dichlorophenyl)-5-pyrimidinyl]-2-methyl-3(2H)-pyridazinone]
270 | Cn1nc(-c2cnc(N)nc2-c2cccs2)ccc1=O [Example 69, 6-[2-Amino-4-(2-thienyl)-5-pyrimidinyl]-2-methyl-3(2H)-pyridazinone]
229 | Cc1ccccc1-c1nc(N)ncc1-c1ccc(=O)n(C)n1 [Example 70, 6-[2-Amino-4-(2-methylphenyl)-5-pyrimidinyl]-2-methyl-3(2H)-pyridazinone]
176.5 to 177.5 | CC(C)Oc1nc(N)nc(-c2ccccc2)c1-c1ccc(=O)n(C(C)C)n1 [Example 82, 6-(2-Amino-4-isopropoxy-6-phenyl-5-pyrimidinyl)-2-isopropyl-3(2H)-pyridazinone]
128 to 130 | COCCOc1nc(N)nc(-c2ccccc2)c1-c1ccc(=O)n(C(C)C)n1 [Example 87, 6-[2-Amino-4-(2-methoxyethoxy)-6-phenyl-5-pyrimidinyl]-2-isopropyl-3(2H)-pyridazinone]
130 to 131.5 | CC(C)n1nc(-c2c(OCCN(C)C)nc(N)nc2-c2ccccc2)ccc1=O [Example 88, 6-{2-Amino-4-[2-(dimethylamino)ethoxy]-6-phenyl-5-pyrimidinyl}-2-isopropyl-3(2H)-pyridazinone]
231.5 to 232.5 | CC(C)n1nc(-c2c(OCCN3C(=O)c4ccccc4C3=O)nc(N)nc2-c2ccccc2)ccc1=O [Example 90, 2-(2-{[2-Amino-5-(1-isopropyl-6-oxo-1,6-dihydro-3-pyridazinyl)-6-phenyl-4-pyrimidinyl]oxy}-ethyl)-1H-isoindole-1,3(2H)-dione]
162 to 163 | CC(C)n1nc(-c2c(OCc3ccccc3)nc(N)nc2-c2ccccc2)ccc1=O [Example 93, 6-[2-amino-4-(benzyloxy)-6-phenyl-5-pyrimidinyl]-2-isopropyl-3(2H)-pyridazinone]
207 to 209 | CC(C)n1nc(-c2c(OC3CCOCC3)nc(N)nc2-c2ccccc2)ccc1=O [Example 97, 6-[2-Amino-4-phenyl-6-(tetrahydro-2H-pyran-4-yloxy)-5-pyrimidinyl]-2-isopropyl-3(2H)-pyridazinone]

Second part, the molecule before the results:

SMILES | melting point [°C]
CC(C)n1nc(-c2cnc(N)nc2-c2cccnc2)ccc1=O [Example 52, 6-[2-Amino-4-(3-pyridinyl)-5-pyrimidinyl]-2-isopropyl-3(2H)-pyridazinone] | 204
CC(C)n1nc(-c2cnc(N)nc2-c2ccncc2)ccc1=O [Example 53, 6-[2-Amino-4-(4-pyridinyl)-5-pyrimidinyl]-2-isopropyl-3(2H)-pyridazinone] | 219
CC(C)n1nc(-c2cnc(N)nc2-c2cccs2)ccc1=O [Example 55, 6-(2-Amino-4-(2-thienyl)-5-pyrimidinyl]-2-isopropyl-3(2H)-pyridazinone] | 213
COc1ccccc1-c1nc(N)ncc1-c1ccc(=O)n(C(C)C)n1 [Example 58, 6-[2-Amino-4-(2-methoxyphenyl)-5-pyrimidinyl]-2-isopropyl-3(2H)-pyridazinone] | 170
COc1cccc(-c2nc(N)ncc2-c2ccc(=O)n(C(C)C)n2)c1 [Example 59, 6-[2-Amino-4-(3-methoxyphenyl)-5-pyrimidinyl]-2-isopropyl-3(2H)-pyridazinone] | 211
COc1ccc(-c2nc(N)ncc2-c2ccc(=O)n(C)n2)cc1 [Example 60, 6-[2-Amino-4-(4-methoxyphenyl)-5-pyrimidinyl]-2-methyl-3(2H)-pyridazinone] | 259
Cn1nc(-c2cnc(N)nc2-c2cccc(F)c2)ccc1=O [Example 62, 6-[2-Amino-4-(3-fluorophenyl)-5-pyrimidinyl]-2-methyl-3(2H)-pyridazinone] | 212.5
COc1ccc(-c2nc(N)ncc2-c2ccc(=O)n(C)n2)cc1F [Example 63, 6-(2-Amino-4-(3-fluoro-4-methoxyphenyl)-5-pyrimidinyl]-2-methyl-3(2H)-pyridazinone] | 245
Cc1ccc(-c2nc(N)ncc2-c2ccc(=O)n(C)n2)cc1 [Example 65, 6-[2-Amino-4-(4-methylphenyl)-5-pyrimidinyl]-2-methyl-3(2H)-pyridazinone] | 230
Cn1nc(-c2cnc(N)nc2-c2ccc(F)c(F)c2)ccc1=O [Example 66, 6-[2-Amino-4-(3,4-difluorophenyl)-5-pyrimidinyl]-2-methyl-3(2H)-pyridazinone] | 231
Cc1cccc(-c2nc(N)ncc2-c2ccc(=O)n(C)n2)c1 [Example 71, 6-[2-Amino-4-(3-methylphenyl)-5-pyrimidinyl]-2-methyl-3(2H)-pyridazinone] | 214
COc1ccccc1-c1nc(N)ncc1-c1ccc(=O)n(C)n1 [Example 72, 6-[2-Amino-4-(2-methoxyphenyl)-5-pyrimidinyl]-2-methyl-3(2H)-pyridazinone] | 225
COc1cccc(-c2nc(N)ncc2-c2ccc(=O)n(C)n2)c1 [Example 73, 6-[2-Amino-4-(3-methoxyphenyl)-5-pyrimidinyl]-2-methyl-3(2H)-pyridazinone] | 195
Cn1nc(-c2cnc(N)nc2-c2ccccc2Br)ccc1=O [Example 74, 6-[2-Amino-4-(2-bromophenyl)-5-pyrimidinyl]-2-methyl-3(2H)-pyridazinone] | > 250
CSc1nc(N)nc(-c2ccccc2)c1-c1ccc(=O)n(C(C)C)n1 [Example 78, 6-[2-amino-4-(methylthio)-6-phenyl-5-pyrimidinyl]-2-isopropyl-3(2H)-pyridazinone] | 221 to 222
CC(C)n1nc(-c2c(-c3ccccc3)nc(N)nc2[S+](C)[O-])ccc1=O (stereo not drawn) [Example 79, 6-[2-amino-4-(methylsulfinyl)-6-phenyl-5-pyrimidinyl]-2-isopropyl-3(2H)-pyridazinone] | 225 to 227
CC(C)n1nc(-c2c(-c3ccccc3)nc(N)nc2S(C)(=O)=O)ccc1=O [Example 79, 6-[2-amino-4-(methylsulfonyl)-6-phenyl-5-pyrimidinyl]-2-isopropyl-3(2H)-pyridazinone] | 210 to 211
COc1nc(N)nc(-c2ccccc2)c1-c1ccc(=O)n(C(C)C)n1 [Example 80, 6-(2-amino-4-methoxy-6-phenyl-5-pyrimidinyl)-2-isopropyl-3(2H)-pyridazinone] | 230 to 233
CCOc1nc(N)nc(-c2ccccc2)c1-c1ccc(=O)n(C(C)C)n1 [Example 81, 6-(2-amino-4-ethoxy-6-phenyl-5-pyrimidinyl)-2-isopropyl-3(2H)-pyridazinone] | 187.5 to 188.5
CC(C)n1nc(-c2c(OC3CCC3)nc(N)nc2-c2ccccc2)ccc1=O [Example 83, 6-[2-Amino-4-(cyclobutyloxy)-6-phenyl-5-pyrimidinyl]-2-isopropyl-3(2H)-pyridazinone] | 161 to 162.5
C=CCOc1nc(N)nc(-c2ccccc2)c1-c1ccc(=O)n(C(C)C)n1 [Example 84, 6-[4-(Allyloxy)-2-amino-6-phenyl-5-pyrimidinyl]-2-isopropyl-3(2H)-pyridazinone] | 130.5 to 132.5
C#CCOc1nc(N)nc(-c2ccccc2)c1-c1ccc(=O)n(C(C)C)n1 [Example 85, 6-[2-amino-4-phenyl-6-(2-propynyloxy)-5-pyrimidinyl]-2-isopropyl-3(2H)-pyridazinone] | 145 to 146.6
CC(C)n1nc(-c2c(OCCO)nc(N)nc2-c2ccccc2)ccc1=O [Example 86, 6-[2-Amino-4-(2-hydroxyethoxy)-6-phenyl-5-pyrimidinyl]-2-isopropyl-3(2H)-pyridazinone] | 182 to 183
COC(=O)COc1nc(N)nc(-c2ccccc2)c1-c1ccc(=O)n(C(C)C)n1 [Example 89, methyl {[2-amino-5-(1-isopropyl-6-oxo-1,6-dihydro-3-pyridazinyl)-6-phenyl-4-pyrimidinyl]oxy}acetate] | 150 to 152.5
CCCOc1nc(N)nc(-c2ccccc2)c1-c1ccc(=O)n(C(C)C)n1 [Example 91, 6-(2-amino-4-phenyl-6-propoxy-5-pyrimidinyl)-2-isopropyl-3(2H)-pyridazinone] | 127.5 to 129
CC(C)n1nc(-c2c(OCCF)nc(N)nc2-c2ccccc2)ccc1=O [Example 92, 6-[2-Amino-4-(2-fluoroethoxy)-6-phenyl-5-pyrimidinyl]-2-isopropyl-3(2H)-pyridazinone] | 129 to 130.5
CC(C)n1nc(-c2c(OCc3ccccn3)nc(N)nc2-c2ccccc2)ccc1=O [Example 94, 6-[2-amino-4-phenyl-6-(2-pyridinylmethoxy)-5-pyrimidinyl]-2-isopropyl-3(2H)-pyridazinone] | 177 to 178
CC(C)n1nc(-c2c(OC3CCCCC3)nc(N)nc2-c2ccccc2)ccc1=O [Example 96, 6-[2-Amino-4-(cyclohexyloxy)-6-phenyl-5-pyrimidinyl]-2-isopropyl-3(2H)-pyridazinone] | 173 to 175
